Data: patent US20250230193A1, “CYCLIC COMPOUND HAVING SELECTIVE KRAS INHIBITORY EFFECT ON HRAS AND NRAS” (CHUGAI SEIYAKU KABUSHIKI KAISHA, priority 2022, published 2025)
*1 amine or outer side, *2 acyl side, *3 side chain or, on linkers, in order; H or OH if unused. Where a SMILES comes first, the peptide text is derived from it. Bridges are numbered along the chain shown (N, C = ends). [ ]: non-standard residue; d: D form. The star is where a group is joined. hPhe(3-Cl-4-CF3) = N[C@@H](CCc1ccc(C(F)(F)F)c(Cl)c1)C(=O)O; X19 = CCCCN([C@@H](Cc1ccc(C)cc1)C(=O)[*:2])[*:1]; NMeGly(cPent) = CN[C@H](C(=O)O)C1CCCC1; NMeD = CN[C@@H](CC(=O)O)C(=O)O; NMeL = CN[C@@H](CC(C)C)C(=O)O; Morpholide = C1CN(*)CCO1; NMeA = CN[C@@H](C)C(=O)O; Ac5c = NC1(C(=O)O)CCCC1; Aze = O=C(O)[C@@H]1CCN1; Sar = CNCC(=O)O

Key:
[1] = target: GDP-bound HRAS wild-type protein (Homo sapiens, UniProt P01112); experiment: Binding to HRAS by surface plasmon resonance (SPR), Single Cycle Kinetics
Chain of GDP-bound HRAS wild-type protein (P01112 whole entry): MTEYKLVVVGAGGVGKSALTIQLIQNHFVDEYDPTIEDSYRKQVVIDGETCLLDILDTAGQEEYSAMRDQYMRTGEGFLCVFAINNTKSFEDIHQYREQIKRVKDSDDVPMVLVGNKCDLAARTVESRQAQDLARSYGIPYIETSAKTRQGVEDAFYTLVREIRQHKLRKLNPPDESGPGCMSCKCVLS

[2] = target: GDP-bound NRAS wild-type protein (Homo sapiens, UniProt P01111); experiment: Binding to NRAS by surface plasmon resonance (SPR), Single Cycle Kinetics
Chain of GDP-bound NRAS wild-type protein (P01111 whole entry): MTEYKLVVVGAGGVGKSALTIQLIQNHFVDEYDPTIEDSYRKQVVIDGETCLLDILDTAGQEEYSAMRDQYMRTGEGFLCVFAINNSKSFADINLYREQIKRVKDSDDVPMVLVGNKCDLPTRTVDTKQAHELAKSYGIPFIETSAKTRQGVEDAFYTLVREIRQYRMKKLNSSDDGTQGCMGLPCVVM

[3] = KD ratio, GDP-bound HRAS wild-type vs GDP-bound KRAS wild-type, SPR
[4] = KD ratio, GDP-bound NRAS wild-type vs GDP-bound KRAS wild-type, SPR

In the case of `CCC(CC)[C@H]1C(=O)N(C)[C@H](C(=O)N(C)C)CC(=O)N(C)[C@@H](COC)C(=O)N[C@@H]([C@@H](C)CC)C(=O)N(C)CC(=O)N(C)[C@H]2C/C=C\CCN(C2=O)[C@@H](Cc2ccc(C)cc2)C(=O)N(C)CC(=O)N[C@@H](CCc2ccc(C(F)(F)F)c(OC)c2)C(=O)N2CCCC[C@H]2C(=O)NC2(CC(C)(C)C2)C(=O)N1C` [PP2937], the “HRAS/KRAS (ratio of KD value with respect to GDP-bound HRAS wild-type protein to KD value with respect to KRAS)” value ([1]; KD ratio HRAS/KRAS, class symbols) is reported as “A (a compound having 10 or more and less than 20 is denoted as A)” and the “NRAS/KRAS (ratio of KD value with respect to GDP-bound NRAS wild-type protein to KD value with respect to KRAS)” value ([2]; KD ratio NRAS/KRAS, class symbols) is reported as “A (a compound having 10 or more and less than 20 is denoted as A)”.

In the case of `CCO[C@@H]1C[C@H]2C(=O)NC3(CCC3)C(=O)N(C)[C@@H](C3CCCC3)C(=O)N(C)[C@H](C(=O)N3CCOCC3)CC(=O)N(C)[C@@H](COC)C(=O)N[C@@H]([C@@H](C)CC)C(=O)NCC(=O)N(C)[C@H]3CCCCCN(C3=O)[C@@H](Cc3ccc(C(F)(F)F)cc3)C(=O)N(C)CC(=O)N[C@@H](CCc3cc(F)c(C(F)(F)F)c(F)c3)C(=O)N2C1` [PP0858], the “HRAS/KRAS (ratio of KD value with respect to HRAS to KD value with respect to KRAS)” value [1, 3] is reported as “B (a compound having 3 or more and less than 10 is denoted as B)” and the “NRAS/KRAS (ratio of KD value with respect to NRAS to KD value with respect to KRAS)” value [2, 4] is reported as “B (a compound having 3 or more and less than 10 is denoted as B)”.

`CC[C@H](C)[C@@H]1NC(=O)[C@H](CC(C)C)N(C)C(=O)C[C@@H](C(=O)N2CCOCC2)N(C)C(=O)[C@H](C2CCCC2)N(C)C(=O)C2(CCCC2)NC(=O)[C@@H]2CCCN2C(=O)[C@H](CCc2cc(F)c(C(F)(F)F)c(F)c2)NC(=O)CN(C)C(=O)[C@H](Cc2ccc(C(F)(F)F)cc2)N2CCCC[C@@H](C2=O)N(C)C(=O)[C@H](C)N(C)C1=O` [PP0544] was tested, and the “HRAS/KRAS (ratio of KD value with respect to GDP-bound HRAS wild-type protein to KD value with respect to KRAS)” value ([1]; KD ratio HRAS/KRAS, SPR) was “B (a compound having 3 or more and less than 10 is denoted as B)” and the “NRAS/KRAS (ratio of KD value with respect to GDP-bound NRAS wild-type protein to KD value with respect to KRAS)” value ([2]; KD ratio NRAS/KRAS, SPR) was “B (a compound having 3 or more and less than 10 is denoted as B)”.

In the case of `CCOC[C@H]1C(=O)N[C@@H]([C@@H](C)CC)C(=O)N(C)CC(=O)N(C)[C@H]2C/C=C\CCN(C2=O)[C@@H](Cc2ccc(C(F)(F)F)cc2)C(=O)N(C)CC(=O)N[C@@H](CCc2cc(F)c(C(F)(F)F)c(F)c2)C(=O)N2C[C@H](OCC)C[C@H]2C(=O)NC2(CC(C)(C)C2)C(=O)N(C)[C@@H](C2CCCC2)C(=O)N(C)[C@H](C(=O)N(C)CC)CC(=O)N1C` [PP2032], the “HRAS/KRAS (ratio of KD value for HRAS to KD value for KRAS)” value [1, 3] is reported as “B (a compound having 3 or more and less than 10 is denoted as B)” and the “NRAS/KRAS (ratio of KD value for NRAS to KD value for KRAS)” value [2, 4] is reported as “A (a compound having 10 or more and less than 20 is denoted as A)”.

`CCO[C@@H]1C[C@H]2C(=O)NC3(CCC3)C(=O)N(C)[C@@H](C3CCCC3)C(=O)N(C)[C@H](C(=O)N(C)C)CC(=O)N(C)[C@@H](CC3CC3)C(=O)N[C@@H]([C@@H](C)CC)C(=O)N(C)CC(=O)N(C)[C@H]3CCCCCN(C3=O)[C@@H](Cc3ccc(F)cc3)C(=O)N(C)CC(=O)N[C@@H](CCc3cc(F)c(C(F)(F)F)c(F)c3)C(=O)N2C1` [PP1192] was tested, and the “HRAS/KRAS (ratio of KD value with respect to HRAS to KD value with respect to KRAS)” value [1, 3] was “A (a compound having 10 or more and less than 20 is denoted as A)” and the “NRAS/KRAS (ratio of KD value with respect to NRAS to KD value with respect to KRAS)” value [2, 4] was “B (a compound having 3 or more and less than 10 is denoted as B)”.

In the case of `CCO[C@@H]1C[C@H]2C(=O)N[C@@]3(C)CCCCCCC[C@@H](C(=O)N[C@@H]([C@@H](C)CC)C(=O)N(C)CC(=O)N(C)[C@H]4CCCCN(C4=O)[C@@H](Cc4ccc(C(F)(F)F)cc4)C(=O)N(C)CC(=O)N[C@@H](CCc4cc(F)c(C(F)(F)F)c(F)c4)C(=O)N2C1)N(C)C(=O)C[C@@H](C(=O)N1CCOCC1)N(C)C(=O)[C@H](C1CCCC1)N(C)C3=O` [PP0993], the “HRAS/KRAS (ratio of KD value with respect to HRAS to KD value with respect to KRAS)” value [1, 3] is reported as “B (a compound having 3 or more and less than 10 is denoted as B)” and the “NRAS/KRAS (ratio of KD value with respect to NRAS to KD value with respect to KRAS)” value [2, 4] is reported as “B (a compound having 3 or more and less than 10 is denoted as B)”.

With `CCCCN1C(=O)[C@@H]2CCN2C(=O)[C@H](C)N(C)C(=O)[C@H]([C@@H](C)CC)NC(=O)[C@H](CC(C)C)N(C)C(=O)C[C@@H](C(=O)N2CCOCC2)N(C)C(=O)[C@H](C2CCCC2)N(C)C(=O)C2(CCCC2)NC(=O)[C@@H]2CCCN2C(=O)[C@H](CCc2ccc(C(F)(F)F)c(Cl)c2)NC(=O)CN(C)C(=O)[C@@H]1Cc1ccc(C)cc1` [PP0055] ([NMeL]I[NMeA][Aze][X19][Sar][hPhe(3-Cl-4-CF3)]P[Ac5c][NMeGly(cPent)][NMeD]-Morpholide; lactam N-11) the “HRAS/KRAS (ratio of KD for GDP-bound HRAS wild-type to KD for KRAS)” value ([1]; KD ratio HRAS/KRAS, SPR) was “C (A compound having a KD ratio of 0.1 or more and less than 3 is denoted as C)” and the “NRAS/KRAS (ratio of KD for GDP-bound NRAS wild-type to KD for KRAS)” value ([2]; KD ratio NRAS/KRAS, SPR) was “C (A compound having a KD ratio of 0.1 or more and less than 3 is denoted as C)”.
